Data published in patent publication US20240239781A1, “1H-PYRAZOLE DERIVATIVES AS SIGMA LIGANDS” (ACONDICIONAMIENTO TARRASENSE, priority 2021, published 2024).

Experiments:
[1] = target: T1, human σ1 receptor (Homo sapiens, UniProt Q99720); experiment: Human σ1 receptor radioligand assay ([3H](+)-pentazocine, transfected HEK-293 membranes); conditions: class scale, read-out: Binding σ-1 Ki
T1 construct: expressed in transfected cells; host or cells: HEK-293
Outline: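 Membranes (7 μg) from transfected HEK-293 cells were incubated with 5 nM [3H](+)-pentazocine in 50 mM Tris-HCl, pH 8, for 120 minutes at 37° C, with 10 μM haloperidol defining non-specific binding. Bound radioactivity was filtered and counted by scintillation. Results are % inhibition at 1 or 10 μM or Ki from five concentrations.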

[2] = target: T2, human σ2/TMEM97 receptor (Homo sapiens, UniProt Q5BJF2); experiment: Binding assay to human σ2/TMEM97 receptor ([3H]-DTG, transfected HEK-293 membranes); conditions: class scale, read-out: Binding σ-2 Ki
T2 construct: expressed in transfected cells; host or cells: HEK-293
Outline: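 Membranes (15 μg) from transfected HEK-293 incubated 120 min at 25 °C with 10 nM [3H]-DTG in 50 mM Tris-HCl pH 8.0; nonspecific binding with 10 μM haloperidol. Filtration and scintillation counting; % inhibition at 1 or 10 μM, or Ki from five concentrations.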

T1 sequence (Q99720 whole entry): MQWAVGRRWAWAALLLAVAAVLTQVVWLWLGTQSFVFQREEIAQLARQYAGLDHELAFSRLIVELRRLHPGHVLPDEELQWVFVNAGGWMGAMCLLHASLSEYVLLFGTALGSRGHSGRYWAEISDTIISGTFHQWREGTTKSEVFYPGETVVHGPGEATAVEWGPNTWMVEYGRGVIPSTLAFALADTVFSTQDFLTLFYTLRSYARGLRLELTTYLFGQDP
T2 sequence (Q5BJF2 whole entry): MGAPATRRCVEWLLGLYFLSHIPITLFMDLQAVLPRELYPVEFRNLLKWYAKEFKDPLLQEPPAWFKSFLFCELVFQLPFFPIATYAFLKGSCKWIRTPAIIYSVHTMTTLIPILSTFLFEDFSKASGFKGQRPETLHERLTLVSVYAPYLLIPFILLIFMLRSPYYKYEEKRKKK

Ki [1] [µM]	Ki [2] [µM]	Structure (SMILES)
0.5 to 1	< 0.1	CCn1nc(-c2ccon2)c(C(=O)N2CC3(CCN(CCC(C)(C)C)CC3)C2)c1Cl [Example 187, (5-Chloro-1-ethyl-3-(isoxazol-3-yl)-1H-pyrazol-4-yl)(7-(3,3-dimethylbutyl)-2,7-diazaspiro[3.5]nonan-2-yl)methanone]
0.5 to 1	0.1 to 0.5	Cc1cc(-c2nn(C)c(Cl)c2CN2CCC(NCCC(C)C)C2)no1 (stereo not shown) [Example 11, 1-((5-Chloro-1-methyl-3-(5-methylisoxazol-3-yl)-1H-pyrazol-4-yl)methyl)-N-isopentylpyrrolidin-3-amine]
0.1 to 0.5	> 1	Cc1cc(-c2nn(-c3ccccc3)c(Cl)c2CN2CCCCC(NCCC(C)C)C2)no1 (stereo not shown) [Example 18, 1-((5-Chloro-3-(5-methylisoxazol-3-yl)-1-phenyl-1H-pyrazol-4-yl)methyl)-N-isopentylazepan-3-amine]
0.1 to 0.5	0.5 to 1	Cc1cc(-c2nn(C)c(Cl)c2CN2CCCCC(NCCC(C)(C)C)C2)no1 (stereo not shown) [Example 8, 1-((5-Chloro-1-methyl-3-(5-methylisoxazol-3-yl)-1H-pyrazol-4-yl)methyl)-N-(3,3-dimethylbutyl)azepan-3-amine]
0.1 to 0.5	< 0.1	CCOc1cccc(-c2nn(C)c(Cl)c2C(=O)N2CCC3(CCN(CCC(C)(C)C)CC3)CC2)n1 [Example 186, (5-Chloro-3-(6-ethoxypyridin-2-yl)-1-methyl-1H-pyrazol-4-yl)(9-(3,3-dimethylbutyl)-3,9-diazaspiro[5.5]undecan-3-yl)methanone]
< 0.1	< 0.1	CCn1nc(-c2ccon2)c(CC(=O)Nc2ccc3c(c2)CCN(CCC(C)(C)C)C3)c1Cl [Example 211, 2-(5-Chloro-1-ethyl-3-(isoxazol-3-yl)-1H-pyrazol-4-yl)-N-(2-(3,3-dimethylbutyl)-1,2,3,4-tetrahydroisoquinolin-6-yl)acetamide]
0.5 to 1	0.5 to 1	Cc1cc(-c2nn(C)c(Cl)c2CN2CCC(CNCC(C)C)CC2)no1 [Example 43, N-((1-((5-Chloro-1-methyl-3-(5-methylisoxazol-3-yl)-1H-pyrazol-4-yl)methyl)piperidin-4-yl)methyl)-2-methylpropan-1-amine]
> 1	> 1	Cc1cc(-c2nn(C)c(Cl)c2C(=O)N2CCC[C@H](NCCC(C)C)C2)no1 [Example 109, (S)-(5-Chloro-1-methyl-3-(5-methylisoxazol-3-yl)-1H-pyrazol-4-yl)(3-(isopentylamino)piperidin-1-yl)methanone]
< 0.1	0.1 to 0.5	Cc1cc(-c2nn(C)c(Cl)c2CN2CCC3(C2)CN(Cc2ccccc2)C3)no1 [Example 60, 3-(4-((2-Benzyl-2,6-diazaspiro[3.4]octan-6-yl)methyl)-5-chloro-1-methyl-1H-pyrazol-3-yl)-5-methylisoxazole]
< 0.1	< 0.1	Cn1nc(-c2cccc(C(F)(F)F)n2)c(C(=O)NC2CCN(CCC(C)(C)C)CC2)c1Cl [Example 167, 5-Chloro-N-(1-(3,3-dimethylbutyl)piperidin-4-yl)-1-methyl-3-(6-(trifluoromethyl)pyridin-2-yl)-1H-pyrazole-4-carboxamide]
0.1 to 0.5	0.1 to 0.5	CCn1nc(-c2cc(C)on2)c(C(=O)N[C@H]2CC[C@@H](NCCC(C)(C)C)CC2)c1Cl [Example 201, 5-Chloro-N-((1s,4s)-4-((3,3-dimethylbutyl)amino)cyclohexyl)-1-ethyl-3-(5-methylisoxazol-3-yl)-1H-pyrazole-4-carboxamide]
> 1	0.1 to 0.5	Cn1ccc(-c2nn(C)c(Cl)c2C(=O)N2CCC3(CCN(CCC(C)(C)C)CC3)CC2)n1 [Example 181, (5-Chloro-1,1′-dimethyl-1H,1′H-[3,3′-bipyrazol]-4-yl)(9-(3,3-dimethylbutyl)-3,9-diazaspiro[5.5]undecan-3-yl)methanone]
0.5 to 1	< 0.1	Cc1cc(-c2nn(-c3ccccn3)c(Cl)c2C(=O)N2CCC3(CCN(CCC(C)(C)C)CC3)CC2)no1 [Example 172, (5-Chloro-3-(5-methylisoxazol-3-yl)-1-(pyridin-2-yl)-1H-pyrazol-4-yl)(9-(3,3-dimethylbutyl)-3,9-diazaspiro[5.5]undecan-3-yl)methanone]
< 0.1	< 0.1	CCn1nc(-c2cc(C)on2)c(C(=O)NC2CCC3(CC2)CCN(CCC(C)(C)C)CC3)c1Cl [Example 143, 5-Chloro-N-(3-(3,3-dimethylbutyl)-3-azaspiro[5.5]undecan-9-yl)-1-ethyl-3-(5-methylisoxazol-3-yl)-1H-pyrazole-4-carboxamide]
0.1 to 0.5	0.1 to 0.5	Cn1nc(-c2ccon2)c(CN2CCCCC(NCCC(C)(C)C)C2)c1Cl (stereo not shown) [Example 33, 1-((5-Chloro-3-(isoxazol-3-yl)-1-methyl-1H-pyrazol-4-yl)methyl)-N-(3,3-dimethylbutyl)azepan-3-amine]
< 0.1	< 0.1	CCn1nc(-c2cc(C)on2)c(CC(=O)NC2CCC3(CC2)CCN(CCC(C)(C)C)CC3)c1Cl [Example 216, 2-(5-Chloro-1-ethyl-3-(5-methylisoxazol-3-yl)-1H-pyrazol-4-yl)-N-(3-(3,3-dimethylbutyl)-3-azaspiro[5.5]undecan-9-yl)acetamide]
0.5 to 1	< 0.1	Cc1cc(-c2nn(C)c(Cl)c2CN2CCC3(CCN(CCC(C)C)CC3)CC2)no1 [Example 67, 3-(5-Chloro-4-((9-isopentyl-3,9-diazaspiro[5.5]undecan-3-yl)methyl)-1-methyl-1H-pyrazol-3-yl)-5-methylisoxazole]
0.1 to 0.5	> 1	CCCN(CCC)CC1CCN(Cc2c(-c3cc(C)on3)nn(C)c2Cl)C1 (stereo not shown) [Example 46, N-((1-((5-Chloro-1-methyl-3-(5-methylisoxazol-3-yl)-1H-pyrazol-4-yl)methyl)pyrrolidin-3-yl)methyl)-N-propylpropan-1-amine]
0.5 to 1	< 0.1	CCn1nc(-c2cc(C)on2)c(C(=O)N2CCCC3(CN(CCC(C)(C)C)C3)C2)c1Cl [Example 194, (5-Chloro-1-ethyl-3-(5-methylisoxazol-3-yl)-1H-pyrazol-4-yl)(2-(3,3-dimethylbutyl)-2,6-diazaspiro[3.5]nonan-6-yl)methanone]
> 1	0.1 to 0.5	Cc1cc(-c2nn(C)c(Cl)c2C(=O)N2CCC3(CCC(NCCC(C)C)CC3)CC2)no1 [Example 93, (5-Chloro-1-methyl-3-(5-methylisoxazol-3-yl)-1H-pyrazol-4-yl)(9-(isopentylamino)-3-azaspiro[5.5]undecan-3-yl)methanone]
0.5 to 1	< 0.1	Cc1cc(-c2nn(C)c(Cl)c2CC(=O)N2CCC3(CCN(CCC(C)(C)C)CC3)CC2)no1 [Example 208, 2-(5-Chloro-1-methyl-3-(5-methylisoxazol-3-yl)-1H-pyrazol-4-yl)-1-(9-(3,3-dimethylbutyl)-3,9-diazaspiro[5.5]undecan-3-yl)ethan-1-one]
< 0.1	< 0.1	CCn1nc(-c2cc(C)on2)c(C(=O)N[C@@H]2CCN(CCC(C)(C)C)C2)c1Cl [Example 165, (R)-5-Chloro-N-(1-(3,3-dimethylbutyl)pyrrolidin-3-yl)-1-ethyl-3-(5-methylisoxazol-3-yl)-1H-pyrazole-4-carboxamide]
0.1 to 0.5	0.1 to 0.5	Cc1onc(-c2nn(C)c(Cl)c2CN2CCCCC(NCCC(C)(C)C)C2)c1C (stereo not shown) [Example 38, 1-((5-Chloro-3-(4,5-dimethylisoxazol-3-yl)-1-methyl-1H-pyrazol-4-yl)methyl)-N-(3,3-dimethylbutyl)azepan-3-amine]
0.5 to 1	< 0.1	CCn1nc(-c2cnn(C(C)C)c2)c(C(=O)N2CCC3(CCN(CCC(C)(C)C)CC3)CC2)c1Cl [Example 198, (5-Chloro-1-ethyl-1′-isopropyl-1H,1′H-[3,4′-bipyrazol]-4-yl)(9-(3,3-dimethylbutyl)-3,9-diazaspiro[5.5]undecan-3-yl)methanone]
0.1 to 0.5	> 1	CCn1nc(-c2cc(C)on2)c(CN2CCCCC(NCCC(C)C)C2)c1Cl (stereo not shown) [Example 14, 1-((5-Chloro-1-ethyl-3-(5-methylisoxazol-3-yl)-1H-pyrazol-4-yl)methyl)-N-isopentylazepan-3-amine]
> 1	< 0.1	Cc1cc(-c2nn(C)c(Cl)c2C(=O)N2CCCC3(CCN(CC(C)(C)C)CC3)C2)no1 [Example 157, (5-Chloro-1-methyl-3-(5-methylisoxazol-3-yl)-1H-pyrazol-4-yl)(9-neopentyl-2,9-diazaspiro[5.5]undecan-2-yl)methanone]
0.1 to 0.5	0.1 to 0.5	Cc1cc(-c2nn(C)c(Cl)c2C(=O)N2CC3(CCN(CCC(C)(C)C)CC3)C2)no1 [Example 104, (5-Chloro-1-methyl-3-(5-methylisoxazol-3-yl)-1H-pyrazol-4-yl)(7-(3,3-dimethylbutyl)-2,7-diazaspiro[3.5]nonan-2-yl)methanone]
0.1 to 0.5	> 1	Cn1nc(-c2cc(C3CC3)on2)c(CN2CCCCC(NCCC(C)(C)C)C2)c1Cl (stereo not shown) [Example 16, 1-((5-Chloro-3-(5-cyclopropylisoxazol-3-yl)-1-methyl-1H-pyrazol-4-yl)methyl)-N-(3,3-dimethylbutyl)azepan-3-amine]
0.5 to 1	> 1	CC(C)CCNC1CCCCN(Cc2c(-c3cccnc3)nn(C)c2Cl)C1 (stereo not shown) [Example 31, 1-((5-Chloro-1-methyl-3-(pyridin-3-yl)-1H-pyrazol-4-yl)methyl)-N-isopentylazepan-3-amine]
